Assay [1] deals with IHH (human hepatocytes cell line). Nature of the assay: Cell viability, IHH. It is filed as cell-based. Conditions: IHH cells. Here is the method: (§1) In order to evaluate the therapeutic efficacy and potential cytotoxicity of the glycoconjugated drug of the invention for the treatment of HCC, cell viability assays were carried out in different cell lines. Chemiograms were performed using increasing doses of the compound 4-MU as well as the glycosylated compound 4MUR (0-2000 μM). Cell viability was measured by using the CellTiter kit (Promega Corporation). Proliferation was measured through a tritiated thymidine incorporation assay, by incubating the cells for 48 h with either one of the compounds (4MU/4MUR) or culture medium (RPMI) in the presence of 3H-thymidine (Migliore-LaClaustra).

In assay [2] the test system is HA in CFSC-2G cells. Nature of the assay: HA content by flow cytometry, CFSC-2G. The following applies: 0.25-1 mM, 48 h. It is filed as cell-based, rat. Here is the method: The levels of HA were quantified in the activated stellate cells CFSC-2G. For this goal, HA was detected by incubation with HA-fluorescein iso-thiocyanate (FITC) (20 μg/100 μL, Calbiochem SA, Bs. As., Argentina). Cells were treated with 4MU or 4MUR 0.25-1 mM and fixed were analyzed by flow cytometry with a FACS Accuri, BD (Becton Dickinson Immunocytometry Systems), using the BD Accuri 6C™ software.
For orientation: In flow cytometry, cells or beads pass a laser one at a time.

Assay [3] has as its system Huh7 (human hepatic cell line). Nature of the assay: Cell viability (CellTiter), Huh7. Conditions: for pIC50: Huh7 cells. The format is cell-based. The procedure: as §1, with “lines. To this end, an in vitro model was designed. The cells used for in vitro assay were a murine hepatic cell line (Hepa1-6) and a human hepatic cell line (Huh7).” for “lines.”
Assay [4] relates to Hepa129 cells. Nature of the assay: Apoptosis by acridine orange/ethidium bromide staining, Hepa129. The format is cell-based, murine. Conditions: 48h; for induction of apoptosis: Hepa129, 0.1 mM; for cells showing death by apoptosis: Hepa129, 1 mM. Here is the method:
On the other hand, it was examined if growth inhibition by 4MUR was due to induction of apoptosis. To this end, cells were stained with an orange solution of acridine-ethidium bromide (Acridine Orange (NA)/Ethidium Bromide (BrEt) staining) and were then visualized by fluorescence microscopy to analyze their morphological characteristics. Briefly, after 48h of treatment, the cells were incubated with a mixture of NA/BrEt (1 ug/ml) and were then observed under a fluorescence microscope (Nikon). Viable cells are permeable to NA and are stained green. Cells with an altered plasma membrane allow BrEt to enter, which displaces NA, staining the cell orange. The percentage of viable or apoptotic cells was counted for each treatment.

Assay [5] deals with CFSC-2G (Rat hepatic stellate cell line). Nature of the assay: Cell viability, CFSC-2G. It is filed as cell-based. The following applies: CFSC-2G cells. The procedure: as §1
Assay [6] relates to HAS2. Nature of the assay: HAS2 mRNA expression (RT-qPCR), Huh7. The format is cell-based, human. The following applies: Huh7 cells. Here is the method:
(§2) Since HAS mRNA levels often correspond to the activity of hyaluronan synthesis, the effect of 4MUR on HAS2 and HAS3 expression was assessed. To this end, cells with a concentration of 100,000 cells/ml were cultured on 6-well plates and treated with 4MUR (500 μM) for 24 h. Total RNA was extracted using the TriReagent (Sigma Aldrich) according to the manufacture's protocol. RNA was quantified at 260 nm in a DU®730 spectrophotometer (Beckman Coulter, Fullerton, CA, USA). The RNA purity was evaluated according to MIQE guidelines by measuring the ratio A260/A280. […] RT-qPCR for HAS2, HAS3 genes was performed using iQ SYBR Green Supermix protocol (Bio-Rad Laboratories, Milan, Italy). Each PCR amplification was carried out following manufactures instructions (iQ SYBR Green Supermix-Bio-Rad) in a Bio-Rad iQ5 real-time PCR detection system (iCycler IQ5 software, version 3.1; Bio-Rad) Expression was normalized to actin with two reference genes.
Background: Quantitative PCR measures a nucleic acid by following its amplification.

For assay [7], the system named is HAS2. Nature of the assay: HAS2 mRNA expression (RT-qPCR), CFSC-2G. It is filed as cell-based, rat. Conditions: CFSC-2G cells. The procedure: as §2
For assay [8], the system named is Hepa129 cells. Nature of the assay: Proliferation by 3H-thymidine incorporation, Hepa129. The format is cell-based, murine. The following applies: for dose at which proliferation was significantly decreased: Hepa129, 48 h, 3H-thymidine. Here is the method: Chemiograms were performed using increasing doses of the compound 4-MU as well as the glycosylated compound 4MUR (0-2000 μM). Cell viability was measured by using the CellTiter kit (Promega Corporation). Proliferation was measured through a tritiated thymidine incorporation assay, by incubating the cells for 48 h with either one of the compounds (4MU/4MUR) or culture medium (RPMI) in the presence of 3H-thymidine (Migliore-LaClaustra). After incubation, cells were harvested and centrifuged to remove ^3H-thymidine from the supernatant. The cell pellet was lysed with sterile distilled water (200 μl) and said volume was added to paper filters for retaining cell DNA with incorporated ^3H-thymidine. Each paper filter was impregnated in a tube containing scintillation liquid and each sample was run and read using a liquid scintillator counter (Beckman) detecting […] per minute emitted by tritium (^3H). Results are expressed as counts per minute (cpm) for each sample. Proliferation capacity of murine Hepa129 cells treated with 4MU and 4MUR was evaluated, as measured by ^3H-thymidine incorporation.

pIC50: −log10 of the molar value.

Experimental findings from patent US20250222114A1, “GLYCOCONJUGATED DRUG FOR THE TREATMENT OF HEPATOCELLULAR CARCINOMA” (priority 2021, published 2025) are described below.

Regarding `Cc1cc(=O)oc2cc(O)ccc12` [4MU, 4-Methylumbelliferone, reference compound], the pIC50 (as a rule, the negative decadic logarithm of the IC50, by convention in mol/L) in assay [1] (Homo sapiens, Hepatocyte) is 3.31; in assay [3] (Homo sapiens, Huh-7), less than 2.70; in assay [5] (Rattus norvegicus), 2.94. Moreover, the HA level entry in assay [2] is “significantly decreased”. For the same compound, in assay [4], the induction of apoptosis result is reported as “resistant”. Besides, in assay [4], the “cells showing death by apoptosis” value was 60%. In assay [6], the “expression of HAS2” value is “did not affect”. Further, the HAS2 upregulation result in assay [7] is listed as “around 5 fold”. This compound also showed a lowered proliferation in assay [8] (Hepa129, 1 mM) of 50%. The “dose at which proliferation was significantly decreased” value in assay [8] worked out at 1 mM.

Regarding `Cc1cc(=O)oc2cc(O[C@@H]3O[C@H](CO[C@@H]4O[C@@H](C)[C@H](O)[C@@H](O)[C@H]4O)[C@@H](O)[C@H](O)[C@H]3O)ccc12` [4MUR, 4-methylumbelliferyl-rutinoside], the pIC50 in assay [1] is less than 2.70; in assay [3] it was 3.31; in assay [5], less than 2.70. Also, the figures for the “increase of IC50 values of 4MUR compared to 4MU” value in assay [1] and in assay [5] were 6.2 fold and 25.8 fold, respectively. In assay [2], the HA level result is “significantly decreased”. For the same compound, the “increase of 4MU antitumoral effect by glycosylation” value in assay [3] (Huh7, 4MUR compared to 4MU) turned out to be 2.2. Besides, the induction of apoptosis result in assay [4] is reported as “significantly induced apoptosis”. Also, in assay [4], the “cells showing death by apoptosis” value is given as 100%. For the same compound, the “expression of HAS2” value in assay [6] was “significantly reduced”. Further, the HAS2 expression entry in assay [7] is listed as “did not affect”. For the same compound, the “lower dose for significant decrease of proliferation vs 4MU” value in assay [8] (Hepa129) is on record as 10 times. Besides, the “proliferation” value in assay [8] (Hepa129, 1 mM) is recorded as “did not proliferate”. For the same compound, the “dose at which proliferation was significantly decreased” value in assay [8] stood at 0.1 mM.
